The values below come from patent US7361671B2, “Substituted heteroarylalkanoic acids” (The Institute for Pharmaceutical Discovery, Inc., priority 2001, dated 2008).

Data set [1] has as its target human aldose reductase (hALR2) (Homo sapiens, UniProt P15121). The data set can be described thus: inhibition of human aldose reductase (hALR2) activity, methods similar to Butera et al. It counts as biochemical. The following applies: concentration to inhibit activity by 50%, read-out: hAR-#1 (aldose). How it is done: Representative compounds of the invention are tested for their potency, selectivity and efficacy as inhibitors of human aldose reductase. […] Using this assay, the concentrations required to inhibit human aldose reductase (hALR2) activity by 50% (IC50) are determined.

Another data set deals with blood uric acid levels. In words: Uricosuric activity in the chimpanzee: concentrations of uric acid in serum. It counts as in vivo. The following applies: single oral 4 mg/kg dose; for Concentrations of uric acid in serum, mean: mean of chimps. How it is done:
(§1) Compound of Example 14 was administered to chimpanzees orally as a single 4 mg/kg does. While four animals were dosed, complete data was not collected for one animal (Chimp #4), as an adverse reaction to anesthesia required early termination of this animal from the study.

The subject of data set [2] is urinary excretion of uric acid. The data set can be described thus: Uricosuric activity in the chimpanzee: amount of uric acid excreted in the urine. Type of data set: in vivo. The following applies: single oral 4 mg/kg dose; for Amount of uric acid excreted in the urine in 24 hour intervals, mean: mean of chimps. How it is done:
as §1

SMILES strings stand for the structures. Counter-ions that a name gives are not always drawn.

On to `Cc1nc(C)c(Cc2nc3c(F)c(F)cc(F)c3s2)c(C)c1CC(=O)O` (as salt: hydrochloride) [Example 9, 2,4,6-trimethyl-5-(4,5,7-trifluoro-benzothiazol-2-ylmethyl)-pyridin-3-yl-acetic acid hydrochloride], for which the melting point is 216 to 217 °C.
For `O=C(O)Cc1cncc(Cc2nc3c(F)c(F)cc(F)c3s2)c1` (as salt: hydrochloride) [Example 8, 5-(4,5,7-trifluoro-benzothiazol-2-ylmethyl)-pyridin-3-yl-acetic acid hydrochloride], the melting point was in the range of 196 to 197 °C.
Regarding `O=C(O)Cc1cc(Cc2nc3c(F)c(F)cc(F)c3s2)cnc1Cc1ccccc1` (as salt: hydrochloride) [Example 12, 2-benzyl-5-(4,5,7-trifluoro-benzothiazol-2-ylmethyl)-pyridin-3-yl-acetic acid hydrochloride], the melting point is 175 °C (dec.).
`CCc1c(CC(=O)O)c(C)nc(C)c1Cc1nc2c(F)c(F)cc(F)c2s1` (as salt: hydrochloride) [Example 10, 2,6-dimethyl-4-ethyl-5-(4,5,7-trifluoro-benzothiazol-2-ylmethyl)-pyridin-3-yl-acetic acid hydrochloride]: the melting point lay in the range of 193 to 195 °C.
On to `CCc1ncc(CC(=O)O)cc1Cc1nc2c(F)c(F)cc(F)c2s1` [Example 14, 6-ethyl-5-(4,5,7-trifluoro-benzothiazol-2-ylmethyl)-pyridin-3-yl-acetic acid hydrochloride], for which the IC50 in data set [1] is 7 nM. Further, the “Concentrations of uric acid in serum” value in the data set with blood uric acid levels (Chimp #1, 0 hours) was 3.0 mg/dL; in the data set on blood uric acid levels (Chimp #1, 0.25 hours) it was 3.0 mg/dL; in the data set with blood uric acid levels (Chimp #1, 0.50 hours), 3.0 mg/dL; in the data set on blood uric acid levels (Chimp #1, 1.0 hours) it was 3.0 mg/dL; with blood uric acid levels (Chimp #1, 2.0 hours), 2.8 mg/dL; in the data set with blood uric acid levels (Chimp #1, 6.0 hours), 2.2 mg/dL. The “Concentrations of uric acid in serum” value in the data set with blood uric acid levels (Chimp #1, 12 hours) amounted to 1.9 mg/dL; in the data set on blood uric acid levels (Chimp #1, 24 hours) it was 2.3 mg/dL; in the data set on blood uric acid levels (Chimp #1, 48 hours), 3.4 mg/dL; in the data set with blood uric acid levels (Chimp #1, 72 hours) it was 3.2 mg/dL; in the data set on blood uric acid levels (Chimp #1, Baseline), 2.9 mg/dL; with blood uric acid levels (Chimp #2, 0 hours) it was 1.7 mg/dL. Further, the “Concentrations of uric acid in serum” value turned out to be 1.8 mg/dL in the data set with blood uric acid levels (Chimp #2, 0.25 hours); 1.8 mg/dL in the data set with blood uric acid levels (Chimp #2, 0.50 hours); 1.8 mg/dL in the data set on blood uric acid levels (Chimp #2, 1.0 hours); 1.7 mg/dL with blood uric acid levels (Chimp #2, 2.0 hours); 1.2 mg/dL with blood uric acid levels (Chimp #2, 6.0 hours); 0.9 mg/dL with blood uric acid levels (Chimp #2, 12 hours). The “Concentrations of uric acid in serum” value is 1.4 mg/dL with blood uric acid levels (Chimp #2, 24 hours); 1.2 mg/dL with blood uric acid levels (Chimp #2, 48 hours); 1.4 mg/dL in the data set with blood uric acid levels (Chimp #2, 72 hours); 1.9 mg/dL with blood uric acid levels (Chimp #2, Baseline); 2.2 mg/dL in the data set with blood uric acid levels (Chimp #3, 0 hours); 2.3 mg/dL in the data set with blood uric acid levels (Chimp #3, 0.25 hours). Moreover, the “Concentrations of uric acid in serum” value with blood uric acid levels (Chimp #3, 0.50 hours) was determined as 2.3 mg/dL; in the data set with blood uric acid levels (Chimp #3, 1.0 hours) it was 2.1 mg/dL; with blood uric acid levels (Chimp #3, 2.0 hours) it was 1.9 mg/dL; with blood uric acid levels (Chimp #3, 6.0 hours), 1.6 mg/dL; with blood uric acid levels (Chimp #3, 12 hours), 1.6 mg/dL; in the data set with blood uric acid levels (Chimp #3, 24 hours), 1.9 mg/dL. The “Concentrations of uric acid in serum” value in the data set on blood uric acid levels (Chimp #3, 48 hours) came to 1.9 mg/dL; in the data set on blood uric acid levels (Chimp #3, 72 hours), 2.4 mg/dL; in the data set on blood uric acid levels (Chimp #3, Baseline), 2.3 mg/dL; in the data set on blood uric acid levels (Chimp #4, 0 hours), 2.5 mg/dL; with blood uric acid levels (Chimp #4, 0.25 hours), 2.6 mg/dL; with blood uric acid levels (Chimp #4, 0.50 hours), 2.5 mg/dL. The “Concentrations of uric acid in serum” value in the data set on blood uric acid levels (Chimp #4, 1.0 hours) is reported as 2.7 mg/dL; in the data set with blood uric acid levels (Chimp #4, 2.0 hours) it was 2.3 mg/dL; in the data set on blood uric acid levels (Chimp #4, 6.0 hours) it was 1.8 mg/dL; in the data set on blood uric acid levels (Chimp #4, 12 hours), 1.7 mg/dL; in the data set with blood uric acid levels (Chimp #4, Baseline) it was 2.5 mg/dL. Moreover, in the data set with blood uric acid levels (chimpanzee, average of three animals, at approximately 12 hours following dosage), the “maximal lowering of blood uric acid levels” value is reported as “about 44%”. Also, the uricosuric effect result in the data set with blood uric acid levels (chimpanzee, data from three animals) is on record as “clear uricosuric effect”. Besides, the “Concentrations of uric acid in serum, mean” value is 2.4 mg/dL in the data set on blood uric acid levels (0 hours); 2.4 mg/dL in the data set with blood uric acid levels (0.25 hours); 2.4 mg/dL in the data set on blood uric acid levels (0.50 hours); 2.4 mg/dL with blood uric acid levels (1.0 hours); 2.2 mg/dL in the data set with blood uric acid levels (2.0 hours); 1.7 mg/dL in the data set on blood uric acid levels (6.0 hours). Also, the “Concentrations of uric acid in serum, mean” value in the data set on blood uric acid levels (12 hours) stood at 1.5 mg/dL; with blood uric acid levels (24 hours), 1.9 mg/dL; in the data set on blood uric acid levels (48 hours), 2.2 mg/dL; in the data set with blood uric acid levels (72 hours), 2.3 mg/dL; in the data set with blood uric acid levels (Baseline), 2.4 mg/dL. The “Amount of uric acid excreted in the urine in 24 hour intervals” value in data set [2] (Chimp #1, 0-24 hours) is recorded as 1020 mg; in data set [2] (Chimp #1, 24-48 hours), 686 mg; in data set [2] (Chimp #1, 48-72 hours) it was 657 mg; in data set [2] (Chimp #1, Baseline), 321 mg; in data set [2] (Chimp #2, 0-24 hours) it was 758 mg; in data set [2] (Chimp #2, 24-48 hours), 399 mg. The “Amount of uric acid excreted in the urine in 24 hour intervals” value in data set [2] (Chimp #2, 48-72 hours) is recorded as 290 mg; in data set [2] (Chimp #2, Baseline) it was 474 mg; in data set [2] (Chimp #3, 0-24 hours), 843 mg; in data set [2] (Chimp #3, 24-48 hours), 189 mg; in data set [2] (Chimp #3, 48-72 hours) it was 216 mg; in data set [2] (Chimp #3, Baseline), 347 mg. Besides, in data set [2] (Chimp #4, Baseline), the “Amount of uric acid excreted in the urine in 24 hour intervals” value stood at 450 mg. In data set [2] (chimpanzee, over the first 24 hours following dosage), the “urinary excretion of uric acid” value was “concomitant increase in the urinary excretion of uric acid”. The “Amount of uric acid excreted in the urine in 24 hour intervals, mean” value in data set [2] (0-24 hours) was found to be 874 mg; in data set [2] (24-48 hours), 425 mg; in data set [2] (48-72 hours), 388 mg; in data set [2] (Baseline) it was 398 mg.
`CCc1ncc(CC(=O)O)cc1Cc1nc2c(F)c(F)cc(F)c2s1` (as salt: hydrochloride) [Example 14, 6-ethyl-5-(4,5,7-trifluoro-benzothiazol-2-ylmethyl)-pyridin-3-yl-acetic acid hydrochloride]: the melting point is 220 °C (dec.).
Still for that read-out and setting: next, `O=C(O)Cc1cnc(-c2ccccc2)c(Cc2nc3c(F)c(F)cc(F)c3s2)c1` (as salt: hydrochloride) [Example 15, 6-Phenyl-5-(4,5,7-trifluoro-benzothiazol-2-ylmethyl)-pyridin-3-yl-acetic acid hydrochloride]: 205 to 207 °C (dec.); `O=C(O)Cc1cnc(Cc2ccccc2)c(Cc2nc3c(F)c(F)cc(F)c3s2)c1` (as salt: hydrochloride) [Example 16, 6-Benzyl-5-(4,5,7-trifluoro-benzothiazol-2-ylmethyl)-pyridin-3-yl-acetic acid hydrochloride]: 185 °C (dec.).
